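Cultured in 96-well plates, cells were exposed to test compound for 48 hours across five concentrations. Here, GI50 denotes the concentration required for 50% inhibition of growth.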 Calls of active or inactive are those of the source. No stated cut-off is given here; in the data, active = GI50 up to about 1.1 µM and inactive = higher.
Columns and labels:
Assay in all cases: NCI tumour cell line growth inhibition, 48 h
[1] = system: NCI-H460
[2] = system: RPMI-8226
[3] = system: MCF7
[4] = system: OVCAR-5
[5] = system: SF-539
[6] = system: A498
[7] = system: HCT-116
[8] = system: SF-268
[9] = system: OVCAR-8
[10] = system: HL-60
[11] = system: MDA-MB-435
[12] = system: CAKI-1
[13] = system: A549
[14] = system: K562
[15] = system: Hs-578T
[16] = system: MDA-MB-231
[17] = system: RXF 393
[18] = system: TK-10
[19] = system: OVCAR-3
[20] = system: KM12
[21] = system: EKVX
[22] = system: HT-29
[23] = system: SW-620
[24] = system: ACHN
[25] = system: SR
[26] = system: MOLT-4
[27] = system: LOX IMVI
[28] = system: BT-549
[29] = system: SK-MEL-28
[30] = system: DU-145
[31] = system: Malme-3M
[32] = system: NCI-H226
[33] = system: HOP-62
[34] = system: UACC-62
[35] = system: SK-MEL-5
[36] = system: UACC-257
[37] = system: SNB-75
[38] = system: M14
[39] = system: MDA-N
[40] = system: NCI/ADR-RES
[41] = system: HCC 2998
[42] = system: NCI-H23
[43] = system: SN12C
[44] = system: UO-31
[45] = system: HOP-92
[46] = system: HCT-15
[47] = system: SF-295
[48] = system: SNB-19
[49] = system: CCRF-CEM
[50] = system: PC-3
[51] = system: U-251
[52] = system: 786-0
[53] = system: IGROV-1
[54] = system: NCI-H522
[55] = system: SK-MEL-2
[56] = system: T47D
[57] = system: COLO 205
[58] = system: SK-OV-3
[59] = system: OVCAR-4

In the case of `CC(=O)Oc1cc(C)c(OC(C)=O)c2c1[C@H]1CC[C@]3(C)[C@@H](OC(C)=O)CC[C@H]3[C@@H]1CC2`, the GI50 [1] was 17.7 µM (inactive), the GI50 [2] was 19.5 µM (inactive) and the GI50 [3] was 20.6 µM (inactive). For the same molecule, the GI50 [4] was 21.5 µM (inactive), the GI50 [5] was 19.2 µM (inactive) and the GI50 [6] was 18.7 µM (inactive). For the same molecule, the GI50 [7] was 16.6 µM (inactive), the GI50 [8] was 23.3 µM (inactive) and the GI50 [9] was 20.5 µM (inactive). For the same molecule, the GI50 [10] was 20 µM (inactive), the GI50 [11] was 14.4 µM (inactive) and the GI50 [12] was 17.5 µM (inactive). For the same molecule, the GI50 [13] was 17.5 µM (inactive), the GI50 [14] was 23.7 µM (inactive) and the GI50 [15] was 23.4 µM (inactive). For the same molecule, the GI50 [16] was 17.1 µM (inactive), the GI50 [17] was 16.8 µM (inactive) and the GI50 [18] was 16.1 µM (inactive). The GI50 [19] was 18.2 µM (inactive), the GI50 [20] was 15.3 µM (inactive) and the GI50 [21] was 13.5 µM (inactive). For the same molecule, the GI50 [22] was 17.1 µM (inactive), the GI50 [23] was 18.4 µM (inactive) and the GI50 [24] was 14.6 µM (inactive). The GI50 [25] was 29.8 µM (inactive), the GI50 [26] was 11.6 µM (inactive) and the GI50 [27] was 15.8 µM (inactive). For the same molecule, the GI50 [28] was 15.9 µM (inactive), the GI50 [29] was 16.4 µM (inactive) and the GI50 [30] was 16.6 µM (inactive). The GI50 [31] was 17.4 µM (inactive), the GI50 [32] was > 10 µM (inactive) and the GI50 [33] was 19.9 µM (inactive). For the same molecule, the GI50 [34] was 17.7 µM (inactive), the GI50 [35] was 17.5 µM (inactive) and the GI50 [36] was 15.8 µM (inactive). For the same molecule, the GI50 [37] was 26.6 µM (inactive), the GI50 [38] was 16.3 µM (inactive) and the GI50 [39] was 14.6 µM (inactive). The GI50 [40] was 18.2 µM (inactive), the GI50 [41] was 13.9 µM (inactive) and the GI50 [42] was 18.4 µM (inactive). The GI50 [43] was 16.7 µM (inactive), the GI50 [44] was 15.3 µM (inactive) and the GI50 [45] was 11.5 µM (inactive). For the same molecule, the GI50 [46] was 17.5 µM, the GI50 [47] was 20.7 µM (inactive) and the GI50 [48] was 17.8 µM (inactive). For the same molecule, the GI50 [49] was 17.9 µM (inactive), the GI50 [50] was 13.9 µM (inactive) and the GI50 [51] was 15.9 µM (inactive). For the same molecule, the GI50 [52] was 21.8 µM (inactive), the GI50 [53] was 17.1 µM (inactive) and the GI50 [54] was 16.9 µM (inactive).
For `CCc1ncc(C(C)(O)c2ccccc2)n1Cc1ccccc1` (stereo not drawn), the GI50 [1] was 54.7 µM (inactive), the GI50 [2] was 32.3 µM (inactive) and the GI50 [3] was 67.8 µM (inactive). The GI50 [4] was 98.6 µM (inactive), the GI50 [5] was 37.2 µM (inactive) and the GI50 [7] was 0.124 µM (active). The GI50 [8] was 99.8 µM (inactive), the GI50 [9] was 36.1 µM (inactive) and the GI50 [11] was 22.4 µM (inactive). The GI50 [12] was 35.4 µM (inactive), the GI50 [13] was 35.5 µM (inactive) and the GI50 [14] was 33.4 µM (inactive). For the same molecule, the GI50 [15] was 33.4 µM (inactive), the GI50 [16] was 29.3 µM (inactive) and the GI50 [17] was > 100 µM (inactive). For the same molecule, the GI50 [18] was 33.5 µM (inactive), the GI50 [19] was 40.6 µM (inactive) and the GI50 [20] was 31 µM (inactive). The GI50 [21] was 56.2 µM (inactive), the GI50 [22] was 31.8 µM (inactive) and the GI50 [23] was 31.6 µM (inactive). The GI50 [24] was 82.2 µM (inactive), the GI50 [25] was 14.8 µM (inactive) and the GI50 [26] was 22.5 µM (inactive). The GI50 [27] was 29.8 µM (inactive), the GI50 [28] was 45.3 µM (inactive) and the GI50 [29] was 33.4 µM (inactive). The GI50 [30] was > 100 µM (inactive), the GI50 [31] was 41 µM (inactive) and the GI50 [32] was 21.5 µM (inactive). For the same molecule, the GI50 [55] was 70.8 µM (inactive), the GI50 [33] was < 0.01 µM (active) and the GI50 [34] was 20.9 µM (inactive). The GI50 [35] was 17.8 µM (inactive), the GI50 [56] was 73.6 µM (inactive) and the GI50 [57] was 27.8 µM (inactive). For the same molecule, the GI50 [36] was 29.4 µM (inactive), the GI50 [37] was 48.6 µM (inactive) and the GI50 [38] was 0.294 µM (active). The GI50 [40] was 37.7 µM (inactive), the GI50 [42] was 5.56 µM (inactive) and the GI50 [43] was 21.7 µM (inactive). For the same molecule, the GI50 [44] was 55.1 µM (inactive), the GI50 [45] was 67.3 µM (inactive) and the GI50 [46] was 41.5 µM. The GI50 [47] was > 100 µM (inactive), the GI50 [58] was 67.6 µM (inactive) and the GI50 [48] was 42.4 µM (inactive). The GI50 [49] was 48.9 µM (inactive), the GI50 [50] was 43.4 µM (inactive) and the GI50 [51] was 34.6 µM (inactive). The GI50 [53] was 42.4 µM (inactive), the GI50 [54] was 42.1 µM (inactive) and the GI50 [59] was 35.8 µM (inactive).
In the case of `c1ccc2c(c1)SC1=Nc3sc4ccccc4[n+]3CN12`, the GI50 [1] was 15.3 µM (inactive), the GI50 [2] was 21.8 µM (inactive) and the GI50 [3] was 16.4 µM (inactive). The GI50 [4] was 15 µM (inactive), the GI50 [5] was 20.5 µM (inactive) and the GI50 [7] was 18.5 µM (inactive). The GI50 [8] was 17.4 µM (inactive), the GI50 [9] was 26.4 µM (inactive) and the GI50 [10] was 32.1 µM (inactive). For the same molecule, the GI50 [11] was 19.7 µM (inactive), the GI50 [12] was 14.2 µM (inactive) and the GI50 [13] was 1.04 µM (active). For the same molecule, the GI50 [14] was 6.12 µM (inactive), the GI50 [15] was 13.7 µM (inactive) and the GI50 [16] was 18.3 µM (inactive). For the same molecule, the GI50 [18] was 14.8 µM (inactive), the GI50 [19] was 2.88 µM (inactive) and the GI50 [20] was 2.34 µM (inactive). For the same molecule, the GI50 [21] was 2.15 µM (inactive), the GI50 [22] was 12.6 µM (inactive) and the GI50 [23] was 10.4 µM (inactive). The GI50 [24] was 32.8 µM (inactive), the GI50 [25] was 16.9 µM (inactive) and the GI50 [26] was 11.7 µM (inactive). For the same molecule, the GI50 [28] was 22.8 µM (inactive), the GI50 [30] was 27.8 µM (inactive) and the GI50 [31] was 10.5 µM (inactive). For the same molecule, the GI50 [55] was 11.4 µM (inactive), the GI50 [33] was 21.9 µM (inactive) and the GI50 [34] was 15.5 µM (inactive). For the same molecule, the GI50 [35] was 2.52 µM (inactive), the GI50 [56] was 18.5 µM (inactive) and the GI50 [57] was 2.13 µM (inactive). The GI50 [36] was 30.7 µM (inactive), the GI50 [38] was 22 µM (inactive) and the GI50 [40] was 30.9 µM (inactive). The GI50 [42] was 6.01 µM (inactive), the GI50 [43] was 20.8 µM (inactive) and the GI50 [44] was 18.5 µM (inactive). For the same molecule, the GI50 [45] was 7.53 µM (inactive), the GI50 [46] was 40.2 µM and the GI50 [47] was 29.4 µM (inactive). The GI50 [58] was 17.2 µM (inactive), the GI50 [48] was 19.9 µM (inactive) and the GI50 [49] was 16.6 µM (inactive). The GI50 [50] was 24.8 µM (inactive), the GI50 [51] was 3.3 µM (inactive) and the GI50 [52] was 25.9 µM (inactive). For the same molecule, the GI50 [53] was 11.8 µM (inactive) and the GI50 [54] was 2.7 µM (inactive).

Reference: ChEMBL document CHEMBL1201862, “PubChem BioAssay data set” (2004)
